The source made the active and inactive calls. The calls are words filed in the database; no cut-off is given here.
Experiments:
Homo sapiens [1] = species: Homo sapiens; assay: Induction of cell cycle arrest in gefitinib-insensitive human HCC827GR cells assessed as accumulation of cells at G1 measured after 24 hrs by flow cytometry; type: functional
[2] = biological target: Wee1-like protein kinase (Homo sapiens) (UniProt P30291); assay: Inhibition of N-terminal GST tagged human WEE1 catalytic domain (215 to 646 AA) expressed in baculovirus at 10 uM using FAM-labelled peptide as substrate pre-incubated for 10 mins followed by substrate addition by mobility shift assay relative to control
HCC827 = assay: Antiproliferative activity against human HCC827 cells incubated for 48 hrs by MTT assay; type: functional, cell-based; settings: HCC827, 48 h
NCI-H226 [3] = assay: Induction of apoptosis in human NCI-H226 cells assessed as early apoptotic cells at 1 uM measured after 24 hrs by Annexin-V/propidium iodide staining-based flow cytometric analysis (reference value: 0.8%); type: functional
NCI-H226 [4] = assay: Induction of apoptosis in human NCI-H226 cells assessed as late apoptotic cells at 10 uM measured after 24 hrs by Annexin-V/propidium iodide staining-based flow cytometric analysis (reference value: 2.8%); type: functional
[5] = Cmax in Sprague-Dawley rat at 30 mg/kg, po measured upto 24 hrs by UPLC-MS/MS; type: ADME, organism-based; parameters: dose 30 mg/kg, route oral; settings: in vivo
Homo sapiens [6] = assay: Antitumor activity against human HCC827GR cells xenografted in BALB/c nude mouse assessed as reduction in tumor volume at 15 mg/kg, ip dosed measured every 2 days upto 25 days; type: functional, organism-based
[7] = Induction of apoptosis in gefitinib-insensitive human HCC827GR cells assessed as necrotic cells at 10 uM measured after 24 hrs by Annexin-V/propidium iodide staining-based flow cytometric analysis (reference value: 5.8%); type: functional
[8] = Tmax in Sprague-Dawley rat at 30 mg/kg, po measured upto 24 hrs by UPLC-MS/MS; type: ADME, organism-based; settings: in vivo
NCI-H226 [9] = assay: Induction of apoptosis in human NCI-H226 cells assessed as necrotic cells at 1 uM measured after 24 hrs by Annexin-V/propidium iodide staining-based flow cytometric analysis (reference value: 3%); type: functional
Homo sapiens [10] = species: Homo sapiens; assay: Inhibition of cell migration in gefitinib-insensitive human HCC827GR cells incubated upto 72 hrs by wound healing assay; type: functional
[11] = biological target: CDK4/Cyclin D3 (Homo sapiens) (UniProt P11802+P30281); assay: Inhibition of N-terminal GST tagged truncated human CDK4 (1 to 303 AA) coexpressed with CyclinD3 (1 to 292 AA) in baculovirus at 10 uM using FAM-labelled peptide as substrate pre-incubated for 10 mins followed by substrate addition by mobility shift assay relative to control; type: protein-complex assay
[12] = biological target: Mitogen-activated protein kinase 8 (Homo sapiens) (UniProt P45983); assay: Inhibition of human full length His-tagged JNK1 expressed in baculovirus expression system at 10 uM using FAM-labelled peptide as substrate pre-incubated for 10 mins followed by substrate addition by mobility shift assay relative to control
NCI-H226 [13] = assay: Induction of apoptosis in human NCI-H226 cells assessed as early apoptotic cells at 10 uM measured after 24 hrs by Annexin-V/propidium iodide staining-based flow cytometric analysis (reference value: 0.8%); type: functional
[14] = biological target: T1, Epidermal growth factor receptor (Homo sapiens, UniProt P00533); assay: Inhibition of N-terminal GST-tagged human EGFR (d746-750AA) expressed in baculovirus at 10 uM using FAM-labelled peptide as substrate pre-incubated for 10 mins followed by substrate addition by mobility shift assay relative to control
[15] = biological target: Mitogen-activated protein kinase 1 (Homo sapiens) (UniProt P28482); assay: Inhibition of full length N-terminal GST-tagged human ERK2 (1 to 360 AA) expressed in Escherichia coli at 10 uM using FAM-labelled peptide as substrate pre-incubated for 10 mins followed by substrate addition by mobility shift assay relative to control
[16] = biological target: T2, Fibroblast growth factor receptor 1 (Homo sapiens, UniProt P11362); assay: Inhibition of FGF-induced FGFR1 phosphorylation in serum-starved human H520 cells upto 10 uM incubated for 1 hr by Western blot analysis
[17] = Induction of apoptosis in gefitinib-insensitive human HCC827GR cells assessed as necrotic cells at 2.5 uM measured after 24 hrs by Annexin-V/propidium iodide staining-based flow cytometric analysis (reference value: 5.8%); type: functional
[18] = biological target: Inhibitor of nuclear factor kappa-B kinase subunit beta (Homo sapiens) (UniProt O14920); assay: Inhibition of N-terminal GST tagged truncated human IKKbeta (1 to 662 AA) expressed in baculovirus at 10 uM using FAM-labelled peptide as substrate pre-incubated for 10 mins followed by substrate addition by mobility shift assay relative to control
[19] = Induction of apoptosis in gefitinib-insensitive human HCC827GR cells assessed as late apoptotic cells at 10 uM measured after 24 hrs by Annexin-V/propidium iodide staining-based flow cytometric analysis (reference value: 1.5%); type: functional
NCI-H226 [20] = assay: Inhibition of colony formation in human NCI-H226 cells measured after 24 hrs by crystal violet staining based assay; type: functional, cell-based
[21] = biological target: T1, Epidermal growth factor receptor; assay: Inhibition of EGFR in human PC9 cells assessed as reduction in EGF-induced AKT phosphorylation upto 10 uM incubated for 1 hr by Western blot analysis; type: cell-based
NCI-H1581 = assay: Antiproliferative activity against human NCI-H1581 cells assessed as inhibition of cell growth at 10 uM incubated for 48 hrs by MTT assay relative to control; type: functional; settings: NCI-H1581, 48 h
[22] = biological target: T2, Fibroblast growth factor receptor 1; assay: Inhibition of N-terminal GST-tagged human FGFR1 expressed in baculovirus at 10 uM using FAM-labelled peptide as substrate pre-incubated for 10 mins followed by substrate addition by mobility shift assay relative to control
NCI-H520 = assay: Antiproliferative activity against human NCI-H520 cells incubated for 48 hrs by MTT assay; type: functional, cell-based; settings: NCI-H520, 48 h
[23] = Induction of apoptosis in gefitinib-insensitive human HCC827GR cells assessed as late apoptotic cells at 2.5 uM measured after 24 hrs by Annexin-V/propidium iodide staining-based flow cytometric analysis (reference value: 1.5%); type: functional
NCI-H226 [24] = assay: Induction of apoptosis in human NCI-H226 cells assessed as necrotic cells at 10 uM measured after 24 hrs by Annexin-V/propidium iodide staining-based flow cytometric analysis (reference value: 3%); type: functional
[25] = biological target: Vascular endothelial growth factor receptor 1 (Homo sapiens) (UniProt P17948); assay: Inhibition of N-terminal GST tagged human FLT1 cytoplasmic domain (781 to 1338 AA) expressed in baculovirus at 10 uM using FAM-labelled peptide as substrate pre-incubated for 10 mins followed by substrate addition by mobility shift assay relative to control
[26] = biological target: Hepatocyte growth factor receptor (Homo sapiens) (UniProt P08581); assay: Inhibition of N-terminal GST-tagged human MET cytoplasmic domain (956 to 1360 AA) expressed in baculovirus at 10 uM using FAM-labelled peptide as substrate pre-incubated for 10 mins followed by substrate addition by mobility shift assay relative to control
[27] = biological target: T1, Epidermal growth factor receptor; assay: Inhibition of N-terminal GST-tagged human EGFR cytoplasmic domain (669-1210 AA) expressed in baculovirus at 10 uM using FAM-labelled peptide as substrate pre-incubated for 10 mins followed by substrate addition by mobility shift assay relative to control

T1 sequence (P00533 whole entry, the tested form may be a part): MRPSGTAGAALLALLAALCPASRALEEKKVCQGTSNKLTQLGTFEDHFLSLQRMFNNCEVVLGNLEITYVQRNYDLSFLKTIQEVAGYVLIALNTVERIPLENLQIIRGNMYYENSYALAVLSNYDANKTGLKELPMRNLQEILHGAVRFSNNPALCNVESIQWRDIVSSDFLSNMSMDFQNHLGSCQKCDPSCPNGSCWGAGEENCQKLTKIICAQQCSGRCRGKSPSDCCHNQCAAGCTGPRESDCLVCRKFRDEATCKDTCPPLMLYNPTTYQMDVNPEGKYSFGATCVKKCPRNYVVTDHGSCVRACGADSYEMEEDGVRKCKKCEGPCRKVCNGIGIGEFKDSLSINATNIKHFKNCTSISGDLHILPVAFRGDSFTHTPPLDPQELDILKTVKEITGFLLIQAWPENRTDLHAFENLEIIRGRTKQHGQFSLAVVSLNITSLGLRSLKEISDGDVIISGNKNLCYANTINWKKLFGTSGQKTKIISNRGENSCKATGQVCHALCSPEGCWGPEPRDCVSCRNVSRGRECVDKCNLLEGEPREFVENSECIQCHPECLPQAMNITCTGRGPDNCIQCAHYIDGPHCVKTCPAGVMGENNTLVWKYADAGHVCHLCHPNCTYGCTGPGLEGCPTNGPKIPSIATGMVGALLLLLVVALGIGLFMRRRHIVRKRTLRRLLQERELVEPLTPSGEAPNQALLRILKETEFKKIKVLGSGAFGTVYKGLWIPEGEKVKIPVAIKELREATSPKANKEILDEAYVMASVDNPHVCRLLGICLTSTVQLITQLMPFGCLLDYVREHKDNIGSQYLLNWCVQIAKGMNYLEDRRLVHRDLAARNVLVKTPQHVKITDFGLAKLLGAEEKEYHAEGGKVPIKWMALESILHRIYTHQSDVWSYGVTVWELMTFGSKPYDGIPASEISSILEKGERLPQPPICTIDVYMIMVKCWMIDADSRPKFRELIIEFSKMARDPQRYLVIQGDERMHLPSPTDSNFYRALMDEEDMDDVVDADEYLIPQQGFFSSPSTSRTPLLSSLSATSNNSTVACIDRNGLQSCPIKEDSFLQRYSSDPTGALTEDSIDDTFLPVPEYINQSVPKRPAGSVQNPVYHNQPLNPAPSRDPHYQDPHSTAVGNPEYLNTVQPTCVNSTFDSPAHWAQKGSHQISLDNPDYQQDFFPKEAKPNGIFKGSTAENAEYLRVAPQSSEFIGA
T2 sequence (P11362 22-822 limits assumed): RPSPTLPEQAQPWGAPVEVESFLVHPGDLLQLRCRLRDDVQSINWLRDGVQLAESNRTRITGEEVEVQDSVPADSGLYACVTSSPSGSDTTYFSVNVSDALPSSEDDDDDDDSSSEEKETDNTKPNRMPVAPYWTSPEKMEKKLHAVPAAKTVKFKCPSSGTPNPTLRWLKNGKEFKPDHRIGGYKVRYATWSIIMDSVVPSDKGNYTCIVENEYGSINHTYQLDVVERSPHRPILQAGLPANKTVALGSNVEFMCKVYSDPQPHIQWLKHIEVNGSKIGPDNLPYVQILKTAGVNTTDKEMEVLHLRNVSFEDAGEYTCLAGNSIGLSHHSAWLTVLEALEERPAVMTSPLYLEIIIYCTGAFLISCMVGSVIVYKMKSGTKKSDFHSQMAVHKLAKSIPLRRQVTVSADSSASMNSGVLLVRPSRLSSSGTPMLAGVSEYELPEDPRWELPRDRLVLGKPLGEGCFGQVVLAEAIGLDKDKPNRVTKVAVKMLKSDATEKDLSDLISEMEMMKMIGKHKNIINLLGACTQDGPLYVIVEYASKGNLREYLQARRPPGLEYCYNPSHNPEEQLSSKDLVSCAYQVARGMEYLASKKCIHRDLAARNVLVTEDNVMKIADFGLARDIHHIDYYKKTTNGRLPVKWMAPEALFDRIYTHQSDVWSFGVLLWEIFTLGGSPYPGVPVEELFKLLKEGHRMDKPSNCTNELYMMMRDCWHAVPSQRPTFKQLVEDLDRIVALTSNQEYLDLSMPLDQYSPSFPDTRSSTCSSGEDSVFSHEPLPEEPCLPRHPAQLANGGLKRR
Chain of Vascular endothelial growth factor receptor 1 (Homo sapiens) (P17948 whole entry, the tested form may be a part): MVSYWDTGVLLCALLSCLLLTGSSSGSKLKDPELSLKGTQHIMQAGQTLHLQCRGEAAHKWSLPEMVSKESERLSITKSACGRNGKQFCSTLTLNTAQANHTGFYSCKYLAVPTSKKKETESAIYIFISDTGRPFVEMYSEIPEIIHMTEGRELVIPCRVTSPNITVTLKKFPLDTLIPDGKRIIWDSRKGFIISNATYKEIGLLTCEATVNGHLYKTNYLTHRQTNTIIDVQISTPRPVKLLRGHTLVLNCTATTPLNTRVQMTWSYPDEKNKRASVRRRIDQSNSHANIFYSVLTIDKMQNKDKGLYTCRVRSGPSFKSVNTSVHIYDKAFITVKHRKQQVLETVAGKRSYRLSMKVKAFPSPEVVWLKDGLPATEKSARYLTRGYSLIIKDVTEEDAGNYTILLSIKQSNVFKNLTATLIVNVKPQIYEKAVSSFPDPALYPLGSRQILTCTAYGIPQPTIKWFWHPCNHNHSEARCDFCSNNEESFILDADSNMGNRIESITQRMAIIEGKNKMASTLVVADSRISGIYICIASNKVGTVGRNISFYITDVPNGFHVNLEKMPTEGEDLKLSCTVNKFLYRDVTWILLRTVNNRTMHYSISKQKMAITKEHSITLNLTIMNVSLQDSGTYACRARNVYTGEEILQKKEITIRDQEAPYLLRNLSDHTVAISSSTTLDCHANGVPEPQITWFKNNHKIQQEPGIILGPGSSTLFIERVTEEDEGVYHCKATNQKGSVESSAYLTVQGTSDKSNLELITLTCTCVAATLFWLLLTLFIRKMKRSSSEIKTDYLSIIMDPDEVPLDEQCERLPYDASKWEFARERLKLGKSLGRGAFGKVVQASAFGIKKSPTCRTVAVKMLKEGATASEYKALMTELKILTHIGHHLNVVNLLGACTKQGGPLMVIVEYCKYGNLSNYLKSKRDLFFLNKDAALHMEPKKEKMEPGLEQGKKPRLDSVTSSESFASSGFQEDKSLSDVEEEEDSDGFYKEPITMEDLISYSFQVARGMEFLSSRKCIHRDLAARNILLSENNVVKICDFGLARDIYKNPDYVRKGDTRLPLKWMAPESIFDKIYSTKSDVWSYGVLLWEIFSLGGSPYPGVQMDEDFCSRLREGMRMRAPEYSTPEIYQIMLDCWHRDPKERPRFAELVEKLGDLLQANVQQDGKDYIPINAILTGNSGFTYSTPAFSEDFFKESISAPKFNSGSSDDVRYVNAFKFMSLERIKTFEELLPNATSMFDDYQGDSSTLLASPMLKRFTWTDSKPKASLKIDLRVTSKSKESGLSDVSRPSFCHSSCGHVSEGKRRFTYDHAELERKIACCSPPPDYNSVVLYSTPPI
Chain of Mitogen-activated protein kinase 1 (Homo sapiens) (P28482 whole entry, the tested form may be a part): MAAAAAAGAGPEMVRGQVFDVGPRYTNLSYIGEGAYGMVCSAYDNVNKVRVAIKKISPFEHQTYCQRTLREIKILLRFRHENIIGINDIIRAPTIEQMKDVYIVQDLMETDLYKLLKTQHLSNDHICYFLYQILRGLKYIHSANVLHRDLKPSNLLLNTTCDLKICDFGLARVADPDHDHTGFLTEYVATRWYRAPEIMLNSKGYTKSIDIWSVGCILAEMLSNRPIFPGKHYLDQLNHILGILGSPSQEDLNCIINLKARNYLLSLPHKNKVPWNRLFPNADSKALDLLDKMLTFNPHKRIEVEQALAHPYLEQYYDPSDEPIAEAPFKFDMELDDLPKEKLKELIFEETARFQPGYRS
Chain of Mitogen-activated protein kinase 8 (Homo sapiens) (P45983 whole entry): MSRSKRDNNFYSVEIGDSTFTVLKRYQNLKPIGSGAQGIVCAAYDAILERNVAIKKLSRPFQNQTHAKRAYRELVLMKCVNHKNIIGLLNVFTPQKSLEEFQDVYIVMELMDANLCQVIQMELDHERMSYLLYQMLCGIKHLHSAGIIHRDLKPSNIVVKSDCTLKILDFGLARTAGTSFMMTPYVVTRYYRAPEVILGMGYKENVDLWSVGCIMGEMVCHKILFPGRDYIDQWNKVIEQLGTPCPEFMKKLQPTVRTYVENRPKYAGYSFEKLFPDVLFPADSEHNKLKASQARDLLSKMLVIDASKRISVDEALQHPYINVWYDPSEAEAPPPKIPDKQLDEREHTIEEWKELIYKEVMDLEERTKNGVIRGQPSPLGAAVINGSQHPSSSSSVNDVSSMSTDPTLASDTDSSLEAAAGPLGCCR
Chain of Inhibitor of nuclear factor kappa-B kinase subunit beta (Homo sapiens) (O14920 whole entry, the tested form may be a part): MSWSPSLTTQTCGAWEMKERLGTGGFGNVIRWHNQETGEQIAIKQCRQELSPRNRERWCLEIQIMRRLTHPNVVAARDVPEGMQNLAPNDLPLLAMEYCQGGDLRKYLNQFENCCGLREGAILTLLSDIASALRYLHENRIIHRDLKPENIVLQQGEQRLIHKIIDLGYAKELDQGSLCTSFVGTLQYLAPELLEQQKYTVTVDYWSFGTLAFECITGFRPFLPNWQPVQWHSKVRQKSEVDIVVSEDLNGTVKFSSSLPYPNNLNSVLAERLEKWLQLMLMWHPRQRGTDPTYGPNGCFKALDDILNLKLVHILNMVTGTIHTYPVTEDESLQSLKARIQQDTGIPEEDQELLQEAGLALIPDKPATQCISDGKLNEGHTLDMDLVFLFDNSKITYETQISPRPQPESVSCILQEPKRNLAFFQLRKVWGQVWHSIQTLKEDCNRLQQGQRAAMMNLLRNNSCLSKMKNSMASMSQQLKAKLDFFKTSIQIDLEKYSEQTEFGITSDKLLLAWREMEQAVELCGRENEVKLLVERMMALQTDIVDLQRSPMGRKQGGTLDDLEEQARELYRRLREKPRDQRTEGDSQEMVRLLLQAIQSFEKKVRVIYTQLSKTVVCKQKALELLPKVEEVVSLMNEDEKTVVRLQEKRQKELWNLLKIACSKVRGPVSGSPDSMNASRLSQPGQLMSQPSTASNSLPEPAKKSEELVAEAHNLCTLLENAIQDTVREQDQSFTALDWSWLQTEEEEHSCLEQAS

For `COc1ccc(OC)c(Nc2cc(NC(=O)Nc3c(Cl)cccc3Cl)ncn2)c1`, the Activity (Homo sapiens [1]) was “Active”, the inhibition [2] was 28% and the IC50 (HCC827) was 1250 nM. For the same molecule, the Activity (NCI-H226 [3]) was 3%, the Activity (NCI-H226 [4]) was 11.9% and the Cmax [5] was 1270 ng/mL. For the same molecule, the Activity (Homo sapiens [6]) was “Active”, the Activity [7] was 5.4% and the Tmax [8] was 1.5 h. The Activity (NCI-H226 [9]) was 5.8%, the inhibition (Homo sapiens [10]) was “Dose-dependent effect” and the inhibition [11] was 12.5%. The inhibition [12] was 3.79%, the Activity (NCI-H226 [13]) was 4.4% and the inhibition [14] was 95.8%. The inhibition [15] was 9.1%, the inhibition [16] was “Active” and the Activity [17] was 4.5%. The inhibition [18] was -0.73%, the Activity [19] was 30.1% and the inhibition (NCI-H226 [20]) was “Dose-dependent effect”. For the same molecule, the inhibition [21] was “Active”, the inhibition at 10 µM (NCI-H1581) was 93.1% and the inhibition [22] was 85.2%. For the same molecule, the IC50 (NCI-H520) was 3030 nM, the Activity [23] was 13.5% and the Activity (NCI-H226 [24]) was 11.8%. The inhibition [25] was 27.6%, the inhibition [26] was -0.39% and the inhibition [27] was 92.7%.
